According to US11649248B2, “Oxadiazaspiro compounds for the treatment of drug abuse and addiction” (ESTEVE PHARMACEUTICALS, S.A., priority 2015, dated 2023):

Molecular target: human σ1 receptor (Homo sapiens (Human), UniProt Q99720)
Assay: Human σ1 receptor radioligand assay
Format: binding
Conditions: transfected HEK-293 membranes, [3H](+)-pentazocine radioligand
Protocol: Human σ1 Receptor Radioligand Assay
The assay was carried out with 7 μg of membrane suspension, 5 nM of [^3H](+)-pentazocine in either absence or presence of either buffer or 10 μM Haloperidol for total and non-specific binding, respectively. Binding buffer contained Tris-HCl 50 mM at pH 8. Plates were incubated at 37° C. for 120 minutes. […] Filters were dried and counted at approximately 40% efficiency in a MicroBeta scintillation counter (Perkin-Elmer) using EcoScint liquid scintillation cocktail

Chain of human σ1 receptor (Q99720 whole entry): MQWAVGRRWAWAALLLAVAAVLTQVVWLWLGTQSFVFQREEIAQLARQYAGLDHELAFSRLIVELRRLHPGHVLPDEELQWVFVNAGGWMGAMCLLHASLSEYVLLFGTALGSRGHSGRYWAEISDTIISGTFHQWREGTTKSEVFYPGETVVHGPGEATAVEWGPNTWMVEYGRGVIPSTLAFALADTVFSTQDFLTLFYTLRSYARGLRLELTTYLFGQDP

## CCN1CC2(CCN(CCC(C)(C)C)CC2)O[C@@H](C)C1=O [Example 52, (S)-9-(3,3-dimethylbutyl)-4-ethyl-2-methyl-1-oxa-4,9-diazaspiro[5.5]undecan-3-one]
  Ki: < 500 nM
